Results as given in PubChem BioAssay AID2060504 (Molecular Pharmacology Branch, DTP, NCI, 2025).
Values joined by “and” are separate entries in the source; they are usually repeats but may differ in a detail not shown here. Identical values can stand only once.

System: 636577-100-R-J1-PDC complex spheroid viability
Assay: Anticancer human tumor 636577-100-R-J1-PDC patient-derived endometrial adenocarcinoma cell line growth inhibition [GQUAD]
Settings: for viability, T/C: stronger effect = lower value
Source text: DNA G-quadruplex Stabilizer Agents in Combinations in Complex Spheroids
A high-throughput screen of multi-cell type tumor spheroids was designed to identify active combinations of DNA G-quadruplex stabilizer agents and targeted small molecules. Complex spheroids include a stromal component modeled by human endothelial cells (HUVEC) and fibroblasts modeled by human mesenchymal stem cells (MSCs). The concentration ranges selected for each drug and investigational agent were based upon clinically achievable concentrations if the clinical Cmax of the agent was known.
Compounds. The drugs and investigational agents: pidnarulex (CX-5461; NSC782164), APTO-253 (NSC789042), BRACO-19 (NSC847499), peposertib (NSC802822), ceralasertib (NSC780249), elimusertib (NSC800525), camonsertib (NSC841442), AZD-1390 (NSC803789), olaparib (NSC753686), talazoparib (NSC767125), ART-558 (NSC835418), sotorasib (NSC818433), MRTX-1133 (NSC836407), SN-38 (NSC673596), topotecan (NSC609699), etoposide (NSC141540), doxorubicin (NSC123127), gemcitabine (NSC613327), 5-fluorouracil (NSC19893), paclitaxel (NSC125973), vemurafenib (NSC761431), panobinostat (NSC761190), R-306465 (JNJ-16241199; NSC773264), adavosertib (NSC754352), TP-3654 (NSC805149), carboplatin (NSC241240), KSQ-4279 (NSC840948), and staurosporine (NSC755774) were obtained from the National Cancer Institute (NCI) Developmental Therapeutics Program Chemical Repository (34). The FDA-approved anticancer drug set is available from the NCI Developmental Therapeutics Program. […] The stock solutions were prepared in dimethyl sulfoxide (DMSO, Sigma-Aldrich, St. Louis, MO, cat. D2650) at 800-fold the tested concentration and stored at -70 degrees C prior to their use. All drugs and investigational agents were tested over a range starting from a high concentration at or near the clinical Cmax and decreasing in half-log increments. If the clinical Cmax for an agent had not been determined, the highest concentration tested was 10 microM.
2.3 Cell Culture. All cells were maintained in an incubator at 37 degrees C and 5% CO2 with 95% humidity. The PDC lines were cultured according to standard operating procedures established by the NCI PDMR. All PDCs were thawed and cultured in Matrigel-coated flasks prepared with a working solution of 1X Ham's F-12 nutrient mix, without supplementation (Invitrogen, cat. 11765054), 100 U/mL penicillin-streptomycin (Invitrogen, cat. 15140122), and 2.5% Matrigel (Corning Inc., cat. 354248) for the first three passages. The 857933-349-R-J2-PDC line was cultured in 6C/Colon 1B media, which includes advanced DMEM/F-12 (Thermo Fisher Scientific, cat. 12634028), 10 mM HEPES (Thermo Fisher Scientific, cat. 15630080), 1X GlutaMAX supplement (Thermo Fisher Scientific, cat. 35050061), 0.1 mg/mL primocin (InvivoGen, cat. ant-pm-2), 10% defined fetal bovine serum, heat inactivated (HyClone Laboratories Inc., cat. SH30070.03HI), 50% L-WRN conditioned media (ATCC, cat. CRL-3276), 1.25 mM N-Acetyl-L-cysteine (Sigma-Aldrich, cat. A9165), 10 mM nicotinamide (Sigma-Aldrich, cat. N0636), 1X B-27 supplement (Thermo Fisher Scientific, cat. 17504044), 1X N-2 supplement (Thermo Fisher Scientific, cat. 17502048), 10 microM Y-27632 dihydrochloride (Tocris Bioscience, cat. 1254), and 50 ng/mL human EGF recombinant protein (Thermo Fisher Scientific, cat. PHG0311). The 485176-168-R4-J1-PDC line was cultured in Panc media, which includes all 6C/Colon 1B media components plus 100 ng/mL human FGF-10 (Thermo Fisher Scientific, cat. 100-26), 500 nM SB-431542 (Selleckchem, cat. S1067), and gastrin (Tocris, cat. 3006).
[…]
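Note: viability read after seven days of drug exposure.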
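Throughout, for viability, T/C: luminescence signal used as a proxy for viable cells; 100% = DMSO vehicle control wells.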

Q: How did the viability, T/C (compound 0.0316 µM) turn out when `CC1COCCN1c1cc(C2(O)CC3CCC(C2)O3)c2cnn(-c3ccn[nH]3)c2n1` (configuration not stated) was run?
A: 45.5% and 69.8% and 52.9%

Q: What about the viability, T/C (compound 0.1 µM) of the same molecule?
A: 36.3% and 25.4% and 31.3%

Q: And the viability, T/C (compound 0.316 µM)?
A: 18.9% and 15.5% and 18%

Q: And the viability, T/C (compound 1 µM)?
A: 8.03% and 6.74% and 6.72%

Q: What about the viability, T/C (compound 3.16 µM) of the same molecule?
A: 3.6% and 2.83% and 2.96%

Q: What about the viability, T/C (compound 10 µM) of the same molecule?
A: 1.1% and 0.71% and 1.08%

Q: What about the IC50 (curve of compound) of the same molecule?
A: < 0.0316 µM and 0.0541 µM and 0.0367 µM

Q: `Cc1cnc(CNC(=O)c2c(=O)c3ccc(N4CCCN(C)CC4)nc3n3c2sc2ccccc23)cn1` was tested. Which viability, T/C (compound 0.0316 µM) did it give?
A: 50.9% [middle of 10 runs]

Q: And the viability, T/C (compound 0.1 µM)?
A: 29.8% [middle of 10 runs]

Q: And the viability, T/C (compound 0.316 µM)?
A: 26.9% [middle of 10 runs]

Q: And the viability, T/C (compound 1 µM)?
A: 24.9% [middle of 10 runs]

Q: And the viability, T/C (compound 3.16 µM)?
A: 22.2% [middle of 10 runs]

Q: And the viability, T/C (compound 10 µM)?
A: 20.8% [middle of 10 runs]

Q: Which results are given for `COc1ccc([C@@H](O)c2cc(-c3ncnc4cc(N5CCOCC5)ccc34)c(F)cc2Cl)nn1`?
A: viability, T/C (compound 0.0316 µM): 93% and 95.4% and 33.8%; viability, T/C (compound 0.1 µM): 96.2% and 61.9% and 97.4%; viability, T/C (compound 0.316 µM): 86.4% and 88.9% and 65.4%; viability, T/C (compound 1 µM): 55.2% and 54.6% and 49.7%; viability, T/C (compound 3.16 µM): 42.5% and 43.1% and 36.6%; viability, T/C (compound 10 µM): 28.1% and 22.5% and 25.5%; IC50 (curve of compound): 1.58 µM and 1.97 µM and 1.17 µM

Q: For `CC(C)(O)C1CCC(Nc2ccc3ncc(-c4cccc(C(F)(F)F)c4)n3n2)CC1` (configuration not stated) + Cc1[nH]c2ccc(F)cc2c1-c1nc2c3cccnc3c3ncccc3c2[nH]1, which IC50 (curve of first compound, second compound 0.0316 µM) is on record?
A: 1.09 µM

Q: And the IC50 (curve of first compound, second compound 0.1 µM)?
A: 0.981 µM

Q: And the IC50 (curve of first compound, second compound 0.316 µM)?
A: 1.77 µM

Q: And the IC50 (curve of first compound, second compound 1 µM)?
A: 1.88 µM

Q: And the IC50 (curve of first compound, second compound 3.16 µM)?
A: < 0.0316 µM

Q: What about the IC50 (curve of first compound, second compound 10 µM) of the same molecule?
A: < 0.0316 µM

Q: And the viability, T/C (second compound 0.0316 µM, first compound 0.0316 µM)?
A: 92.8%

Q: And the viability, T/C (second compound 0.0316 µM, first compound 0.1 µM)?
A: 75.9%

Q: And the viability, T/C (second compound 0.0316 µM, first compound 0.316 µM)?
A: 111%

Q: What about the viability, T/C (second compound 0.0316 µM, first compound 1 µM) of the same molecule?
A: 51.3%

Q: And the viability, T/C (second compound 0.0316 µM, first compound 3.16 µM)?
A: 35.5%

Q: And the viability, T/C (second compound 0.0316 µM, first compound 10 µM)?
A: 32.2%

Q: What about the viability, T/C (second compound 0.1 µM, first compound 0.0316 µM) of the same molecule?
A: 90.7%

Q: And the viability, T/C (second compound 0.1 µM, first compound 0.1 µM)?
A: 79.1%

Q: What about the viability, T/C (second compound 0.1 µM, first compound 0.316 µM) of the same molecule?
A: 84.4%

Q: And the viability, T/C (second compound 0.1 µM, first compound 1 µM)?
A: 49%

Q: And the viability, T/C (second compound 0.1 µM, first compound 3.16 µM)?
A: 33.1%

Q: And the viability, T/C (second compound 0.1 µM, first compound 10 µM)?
A: 26.2%

Q: What about the viability, T/C (second compound 0.316 µM, first compound 0.0316 µM) of the same molecule?
A: 60.9%

Q: And the viability, T/C (second compound 0.316 µM, first compound 0.1 µM)?
A: 54.6%

Q: And the viability, T/C (second compound 0.316 µM, first compound 0.316 µM)?
A: 82.9%

Q: And the viability, T/C (second compound 0.316 µM, first compound 1 µM)?
A: 62.5%

Q: And the viability, T/C (second compound 0.316 µM, first compound 3.16 µM)?
A: 34.6%

Q: What about the viability, T/C (second compound 0.316 µM, first compound 10 µM) of the same molecule?
A: 39.9%

Q: What about the viability, T/C (second compound 1 µM, first compound 0.0316 µM) of the same molecule?
A: 69%

Q: What about the viability, T/C (second compound 1 µM, first compound 0.1 µM) of the same molecule?
A: 78%

Q: And the viability, T/C (second compound 1 µM, first compound 0.316 µM)?
A: 69.5%

Q: And the viability, T/C (second compound 1 µM, first compound 1 µM)?
A: 69.8%

Q: And the viability, T/C (second compound 1 µM, first compound 3.16 µM)?
A: 33.7%

Q: What about the viability, T/C (second compound 1 µM, first compound 10 µM) of the same molecule?
A: 23.5%

Q: What about the viability, T/C (second compound 3.16 µM, first compound 0.0316 µM) of the same molecule?
A: 20.1%

Q: And the viability, T/C (second compound 3.16 µM, first compound 0.1 µM)?
A: 28.1%

Q: What about the viability, T/C (second compound 3.16 µM, first compound 0.316 µM) of the same molecule?
A: 31.1%

Q: And the viability, T/C (second compound 3.16 µM, first compound 1 µM)?
A: 26.1%

Q: And the viability, T/C (second compound 3.16 µM, first compound 3.16 µM)?
A: 16.2%

Q: And the viability, T/C (second compound 3.16 µM, first compound 10 µM)?
A: 13.1%

Q: What about the viability, T/C (second compound 10 µM, first compound 0.0316 µM) of the same molecule?
A: 31.6%

Q: And the viability, T/C (second compound 10 µM, first compound 0.1 µM)?
A: 34.1%

Q: And the viability, T/C (second compound 10 µM, first compound 0.316 µM)?
A: 39%

Q: What about the viability, T/C (second compound 10 µM, first compound 1 µM) of the same molecule?
A: 37.8%

Q: And the viability, T/C (second compound 10 µM, first compound 3.16 µM)?
A: 17.1%

Q: What about the viability, T/C (second compound 10 µM, first compound 10 µM) of the same molecule?
A: 15.1%
